In publication PMC7616177, “From structure to clinic: Design of a muscarinic M1 receptor agonist with the potential to treat Alzheimer’s disease” (Cell, 2021):

Tested on: rats
Test: Safety pharmacology and toxicology clinical signs, rat
Format: in vivo
Excerpt: The rat and dog were appropriate species in which to conduct nonclinical safety evaluation and HTL9936. Male and female rates of the RccHan: WIST strain were obtained from Harlan, Bicester, UK. and the animals were approximately seven to eight weeks old at the start of dosing. Throughout the study the animals had access ad libitum to SQC Rat and Mouse Maintenance Diet No 1, Expanded, (Special Diets Services Ltd, Witham, UK). […] The temperature and relative humidity ranges were maintained in the specified ranges of 20 to 24°C and 45 to 65%, respectively.

CCOC(=O)N1CCC[C@H](N2CCC(C(=O)NC3(C)CCC3)CC2)CC1 [HTL9936, ethyl (S)-4-(4-((1-methylcyclobutyl)carbamoyl)piperidin-1-yl)azepane-1-carboxylate]
Cu,pl without cholinergic clinical signs: 1,372 nM
Plasma exposure without cholinergic clinical signs: up to 732 ng/mL
